Where two headings read alike, the source gives them in different places.
Experiments:
NS3/NS4 complexes = NS3/NS4 complexes (Hepatitis C virus genotype 1a, UniProt P27958); assay: NS3/NS4 inhibition assay (IC50); format: biochemical; conditions: NS3/NS4 activity; 23° C., 25 μM NS4A peptide
Text: (§1) NS3-NS4 inhibition activity can be determined using known assay methods. For example, NS3/NS4 complexes may be formed and inhibitory concentrations of test compounds determined as described in U.S. Patent Application Publication Number 2007/0054842 paragraph numbers 1497-1509, which is incorporated herein by reference in its entirety. Similarly, hepatitis C replicon EC50 may be determined using known assay methods such as described in U.S. Patent Application Publication Number 2007/0054842 paragraph numbers 1510-1515, which is incorporated herein by reference in its entirety. Assays may be conducted at ambient temperature (23° C.) in assay buffer containing 50 mM Tris-HCl, pH 7.5, 15% glycerol, 0.6 mM Lauryldimethylamine Oxide (LDAO), 25 μM NS4A peptide, and 10 mM Dithiothreitol (DTT).

hepatitis C replicon = hepatitis C replicon EC50 assay; format: cell-based; conditions: Hepatitis C virus
Text: as §1

[1] = hepatitis C replicon, read-out: EC50

Chain of NS3/NS4 complexes (P27958 1027-1657, one chain of several): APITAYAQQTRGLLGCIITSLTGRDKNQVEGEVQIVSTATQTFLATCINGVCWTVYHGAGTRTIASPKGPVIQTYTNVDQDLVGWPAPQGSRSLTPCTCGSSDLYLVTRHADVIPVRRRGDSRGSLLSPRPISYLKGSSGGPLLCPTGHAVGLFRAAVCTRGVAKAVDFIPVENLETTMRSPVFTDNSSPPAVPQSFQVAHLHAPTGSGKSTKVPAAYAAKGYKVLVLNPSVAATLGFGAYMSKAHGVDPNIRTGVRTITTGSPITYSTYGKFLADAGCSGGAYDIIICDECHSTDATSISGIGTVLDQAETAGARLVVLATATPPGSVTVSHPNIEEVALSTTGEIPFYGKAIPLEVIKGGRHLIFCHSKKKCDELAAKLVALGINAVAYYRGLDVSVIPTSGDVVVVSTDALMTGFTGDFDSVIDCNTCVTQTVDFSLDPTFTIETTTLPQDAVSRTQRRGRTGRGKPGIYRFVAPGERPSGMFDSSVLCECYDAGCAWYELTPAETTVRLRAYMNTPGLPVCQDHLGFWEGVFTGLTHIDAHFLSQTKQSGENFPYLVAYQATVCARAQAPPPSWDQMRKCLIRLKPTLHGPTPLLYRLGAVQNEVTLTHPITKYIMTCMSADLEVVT

Row | Compound | IC50 (NS3/NS4 complexes) [nM] | EC50 (hepatitis C replicon; [1]) [nM] | EC50 (hepatitis C replicon) [nM]
1 | CC(C)n1c(O[C@@H]2C[C@H]3C(=O)N[C@]4(C(=O)NS(=O)(=O)C5(C)CC5)C[C@H]4/C=C\CCCCC[C@H](NC(=O)OC(C)(C)C)C(=O)N3C2)nc2c(NS(=O)(=O)Cc3ccccc3)cccc21 [Compound 1401] | < 10 | < 10 | –
2 | CC(C)n1c(O[C@@H]2C[C@H]3C(=O)N[C@]4(C(=O)NS(=O)(=O)C5(C)CC5)C[C@H]4/C=C\CCCCC[C@H](NC(=O)OC(C)(C)C)C(=O)N3C2)nc2c(-c3cnc(N4CCCC4)cn3)cccc21 [Compound 1705] | < 10 | < 10 | –
3 | COc1ccc(Cc2csc(-c3cccc4c3nc(O[C@@H]3C[C@H]5C(=O)N[C@]6(C(=O)NS(=O)(=O)N(C)C)C[C@H]6/C=C\CCCCC[C@H](NC(=O)OC(C)(C)C)C(=O)N5C3)n4C(C)C)n2)cc1OC [Compound 1757] | < 10 | < 10 | –
4 | CC(C)c1nc2ccccc2nc1O[C@@H]1C[C@H]2C(=O)N[C@]3(C(=O)NS(=O)(=O)C4(C)CC4)C[C@H]3/C=C\CCCCC[C@H](Nc3ccccc3)C(=O)N2C1 [Compound 311] | < 10 | 10 to 100 | –
5 | CC(C)n1c(O[C@@H]2C[C@H]3C(=O)N[C@]4(C(=O)NS(=O)(=O)C5CC5)C[C@H]4/C=C\CCCCC[C@H](NC(=O)OC(C)(C)C)C(=O)N3C2)nc2c(-c3cc(C(F)(F)F)nn3C)cccc21 [Compound 222] | < 10 | < 10 | –
6 | CC(C)c1csc(NC(=O)c2cccc3c2nc(O[C@@H]2C[C@H]4C(=O)N[C@]5(C(=O)NS(=O)(=O)N(C)C)C[C@H]5/C=C\CCCCC[C@H](NC(=O)OC(C)(C)C)C(=O)N4C2)n3C(C)C)n1 [Compound 1221] | < 10 | < 10 | –
7 | CC(C)n1c(O[C@@H]2C[C@H]3C(=O)N[C@]4(C(=O)NS(=O)(=O)C5(C)CC5)C[C@H]4/C=C\CCCCC[C@H](Nc4ccccc4)C(=O)N3C2)nc2c(NC(=O)Nc3ccccc3)cccc21 [Compound 287] | < 10 | – | 10 to 100
8 | CC(C)n1c(O[C@@H]2C[C@H]3C(=O)N[C@]4(C(=O)NS(=O)(=O)N(C)C)C[C@H]4/C=C\CCCCC[C@H](NC(=O)OC(C)(C)C)C(=O)N3C2)nc2c(-c3csc(C(C)(C)C)n3)cccc21 [Compound 1743] | < 10 | 10 to 100 | –
9 | Cc1csc(-c2cccc3c2nc(O[C@@H]2C[C@H]4C(=O)N[C@]5(C(=O)NS(=O)(=O)N(C)C)C[C@H]5/C=C\CCCCC[C@H](NC(=O)OC(C)(C)C)C(=O)N4C2)n3C(C)C)n1 [Compound 228] | < 10 | < 10 | –
10 | CC(C)n1c(O[C@@H]2C[C@H]3C(=O)N[C@]4(C(=O)NS(=O)(=O)C5(C)CC5)C[C@H]4/C=C\CCCCC[C@H](NC(=O)O[C@@H]4C[C@@H]5C[C@@H]5C4)C(=O)N3C2)nc2c(-c3nc(-c4ccccc4)cs3)cccc21 [Compound 1731] | < 10 | < 10 | –
11 | CC(C)n1c(O[C@@H]2C[C@H]3C(=O)N[C@]4(C(=O)NS(=O)(=O)C5(C)CC5)C[C@H]4/C=C\CCCCC[C@H](Nc4ccccc4)C(=O)N3C2)nc2c(-c3ccc(F)c(C(F)(F)F)c3)cccc21 [Compound 246] | < 10 | > 100 | –
12 | Cc1sc(-c2cccc3c2nc(O[C@@H]2C[C@H]4C(=O)N[C@]5(C(=O)NS(=O)(=O)N(C)C)C[C@H]5/C=C\CCCCC[C@H](NC(=O)OC(C)(C)C)C(=O)N4C2)n3C(C)C)nc1C(C)(C)C [Compound 1207] | < 10 | 10 to 100 | –
13 | Cc1nc2cc(O[C@@H]3C[C@H]4C(=O)N[C@]5(C(=O)NS(=O)(=O)C6(C)CC6)C[C@H]5/C=C\CCCCC[C@H](Nc5ccccc5)C(=O)N4C3)ccc2o1 [Compound 1252] | < 10 | 10 to 100 | –
14 | CC(C)c1cccc2c1nc(O[C@@H]1C[C@H]3C(=O)N[C@]4(C(=O)NS(=O)(=O)N(C)C)C[C@H]4/C=C\CCCCC[C@H](NC(=O)OC(C)(C)C)C(=O)N3C1)n2C(C)C [Compound 288] | < 10 | < 10 | –
15 | CCCn1c(O[C@@H]2C[C@H]3C(=O)N[C@]4(C(=O)NS(=O)(=O)N(C)C)C[C@H]4/C=C\CCCCC[C@H](NC(=O)OC(C)(C)C)C(=O)N3C2)nc2ccccc21 [Compound 1223] | < 10 | < 10 | –
16 | CC(C)n1c(O[C@@H]2C[C@H]3C(=O)N[C@]4(C(=O)NS(=O)(=O)C5(C)CC5)C[C@H]4/C=C\CCCCC[C@H](Nc4ccccc4)C(=O)N3C2)nc2c(Cl)cccc21 [Compound 263] | < 10 | 10 to 100 | –
17 | CC(C)n1c(O[C@@H]2C[C@H]3C(=O)N[C@]4(C(=O)NS(=O)(=O)C5(C)CC5)C[C@H]4/C=C\CCCCC[C@H](NC(=O)OC(C)(C)C)C(=O)N3C2)nc2c(-c3nc4c(s3)CCCC4(C)C)cccc21 [Compound 1774] | < 10 | 10 to 100 | –
18 | Cc1sc(-c2cccc3c2nc(O[C@@H]2C[C@H]4C(=O)N[C@]5(C(=O)NS(=O)(=O)C6CC6)C[C@H]5/C=C\CCCCC[C@H](NC(=O)OC(C)(C)C)C(=O)N4C2)n3C(C)C)nc1C(C)C [Compound 219] | < 10 | < 10 | –
19 | CC(C)n1c(O[C@@H]2C[C@H]3C(=O)N[C@]4(C(=O)NS(=O)(=O)C5(C)CC5)C[C@H]4/C=C\CCCCC[C@H](Nc4ccccc4)C(=O)N3C2)nc2c(N)cccc21 [Compound 1408] | < 10 | 10 to 100 | –
20 | CCOC(=O)c1nc2ccccc2nc1O[C@@H]1C[C@H]2C(=O)N[C@]3(C(=O)NS(=O)(=O)N(C)C)C[C@H]3/C=C\CCCCC[C@H](NC(=O)OC(C)(C)C)C(=O)N2C1 [Compound 309] | < 10 | 10 to 100 | –
21 | CC(C)n1c(O[C@@H]2C[C@H]3C(=O)N[C@]4(C(=O)NS(=O)(=O)C5(C)CC5)C[C@H]4/C=C\CCCCC[C@H](NC(=O)OC(C)(C)C)C(=O)N3C2)nc2c(-c3csc(C4CC4)n3)cccc21 [Compound 1702] | < 10 | < 10 | –
22 | Cc1nc2cc(O[C@@H]3C[C@H]4C(=O)N[C@]5(C(=O)NS(=O)(=O)N(C)C)C[C@H]5/C=C\CCCCC[C@H](NC(=O)OC(C)(C)C)C(=O)N4C3)ccc2s1 [Compound 1253] | < 10 | > 100 | –
23 | Cc1cnc(-c2cccc3c2nc(O[C@@H]2C[C@H]4C(=O)N[C@]5(C(=O)NS(=O)(=O)N(C)C)C[C@H]5/C=C\CCCCC[C@H](NC(=O)OC(C)(C)C)C(=O)N4C2)n3C(C)C)s1 [Compound 229] | < 10 | < 10 | –
24 | CCc1cccc2c1nc(O[C@@H]1C[C@H]3C(=O)N[C@]4(C(=O)NS(=O)(=O)C5(C)CC5)C[C@H]4/C=C\CCCCC[C@H](Nc4ccccc4)C(=O)N3C1)n2C(C)C [Compound 265] | < 10 | 10 to 100 | –
25 | COc1ccc2c(O[C@@H]3C[C@H]4C(=O)N[C@]5(C(=O)NS(=O)(=O)C6(C)CC6)C[C@H]5/C=C\CCCCC[C@H](NC(=O)N5CCCC5)C(=O)N4C3)cc(-c3nc(C(C)C)cs3)nc2c1C [Compound 1733] | < 10 | < 10 | –
26 | COc1ccc(-c2nnn([C@@H]3C[C@H]4C(=O)N[C@]5(C(=O)NS(=O)(=O)C6(C)CC6)C[C@H]5/C=C\CCCCC[C@H](NC(=O)OC(C)(C)C)C(=O)N4C3)n2)cc1 [Compound 803] | < 10 | 10 to 100 | –
27 | COc1ccc(-c2nn([C@@H]3C[C@H]4C(=O)N[C@]5(C(=O)NS(=O)(=O)C6(C)CC6)C[C@H]5/C=C\CCCCC[C@H](Nc5ccccc5)C(=O)N4C3)nc2-c2nccs2)cc1 [Compound 1506] | < 10 | 10 to 100 | –
28 | CC(C)n1c(O[C@@H]2C[C@H]3C(=O)N[C@]4(C(=O)NS(=O)(=O)N(C)C)C[C@H]4/C=C\CCCCC[C@H](NC(=O)OC(C)(C)C)C(=O)N3C2)nc2c(N)cccc21 [Compound 1419] | < 10 | < 10 | –
